Laboratory results reported in ChEMBL document CHEMBL4627357, “An osteoinductive effect of phytol on mouse mesenchymal stem cells (C3H10T1/2) towards osteoblasts” (Bioorg Med Chem Lett, 2020).
The source made the active and inactive calls. The rule behind the calls is not given here.

How the values were obtained:
[1] = test system: C3H 10T1/2; assay: Upregulation of Runx2 mRNA expression in mouse C3H10T1/2 at 40 uM measured after 72 hrs by SYBR green based RT-qPCR analysis; assay type: functional, cell-based
[2] = test system: C3H 10T1/2; assay: Cytotoxicity against mouse C3H10T1/2 cells assessed as spindle shaped and flattened appearance at 40 uM measured after 72 hrs by FDA staining based assay; assay type: cell-based; conditions: c3h 10t1/2, 72 h
[3] = Cytotoxicity against mouse C3H10T1/2 cells assessed as live cells at 40 uM measured after 72 hrs by MUSE cell analyzer (reference value: 95.8%); assay type: cell-based, C3H 10T1/2; conditions: read-out: Activity
[4] = test system: C3H 10T1/2; assay: Cytotoxicity against mouse C3H10T1/2 cells assessed as dead cells at 40 uM measured after 72 hrs by MUSE cell analyzer (reference value: 4.2%); assay type: cell-based; conditions: c3h 10t1/2, 72 h
[5] = test system: C3H 10T1/2; assay: Induction of osteoblast differentiation in mouse C3H10T1/2 cells assessed as increase in calcium deposition at 40 uM measured after 14 days by alizarin red staining based assay; assay type: functional, cell-based
[6] = test system: C3H 10T1/2; assay: Induction of osteoblast differentiation in mouse C3H10T1/2 cells assessed as formation of mineralized nodule at 40 uM measured after 14 days by von-Kossa staining based assay; assay type: functional, cell-based
[7] = test system: C3H 10T1/2; assay: Induction of osteoblast differentiation in mouse C3H10T1/2 cells assessed as increase in Runx2 mRNA expression at 40 uM measured after 3 to 7 days by RT-qPCR analysis; assay type: functional, cell-based
[8] = test system: C3H 10T1/2; assay: Induction of osteoblast differentiation in mouse C3H10T1/2 cells assessed as increase in ALP mRNA expression at 40 uM measured after 3 days by RT-qPCR analysis; assay type: functional, cell-based
[9] = test system: C3H 10T1/2; assay: Induction of osteoblast differentiation in mouse C3H10T1/2 cells assessed as increase in type-1 collagen mRNA expression at 40 uM measured after 3 days by RT-qPCR analysis; assay type: functional, cell-based
[10] = test system: C3H 10T1/2; assay: Induction of osteoblast differentiation in mouse C3H10T1/2 cells assessed as increase in osteocalcin mRNA expression at 40 uM measured after 3 to 7 days by RT-qPCR analysis; assay type: functional, cell-based
[11] = test system: C3H 10T1/2; assay: Induction of osteoblast differentiation in mouse C3H10T1/2 cells assessed as increase in osterix mRNA expression at 40 uM measured after 3 to 7 days by RT-qPCR analysis; assay type: functional, cell-based
[12] = test system: C3H 10T1/2; assay: Induction of osteoblast differentiation in mouse C3H10T1/2 cells assessed as increase in ALP mRNA expression at 40 uM measured after 7 days by RT-qPCR analysis; assay type: functional, cell-based
[13] = test system: C3H 10T1/2; assay: Induction of osteoblast differentiation in mouse C3H10T1/2 cells assessed as increase in type-1 collagen mRNA expression at 40 uM measured after 7 days by RT-qPCR analysis; assay type: functional, cell-based
[14] = test system: C3H 10T1/2; assay: Induction of osteoblast differentiation in mouse C3H10T1/2 cells assessed as upregulation of miRNA-21a mRNA expression at 40 uM measured after 7 days by RT-qPCR analysis; assay type: functional, cell-based
[15] = test system: C3H 10T1/2; assay: Induction of osteoblast differentiation in mouse C3H10T1/2 cells assessed as upregulation in Runx2 protein expression at 40 uM measured after 7 days by Western blot analysis; assay type: functional, cell-based
[16] = test system: C3H 10T1/2; assay: Induction of osteoblast differentiation in mouse C3H10T1/2 cells assessed as downregulation of Smad7 protein expression at 40 uM measured after 7 days by Western blot analysis; assay type: functional, cell-based

With C/C(=C\CO)CCC[C@H](C)CCC[C@H](C)CCCC(C)C [TRANS-PHYTOL] as the compound, how does the Activity [1] read?
The Activity was “Active”.

What about the Activity [2] of the same compound?
Its Activity is “Non-Toxic”.

And the viability at 72 h, 40 µM [3]?
Its viability at 72 h, 40 µM is 96%.

What about the Activity [4] of the same compound?
Its Activity is 4%.

What about the Activity [5] of the same compound?
The Activity was “Active”.

What about the Activity [6] of the same compound?
Its Activity is “Active”.

What about the Activity [7] of the same compound?
Its Activity is “Active”.

What about the Activity [8] of the same compound?
Its Activity is “inactive”.

What about the Activity [9] of the same compound?
The Activity was “inactive”.

And the Activity [10]?
The Activity was “inactive”.

What about the Activity [11] of the same compound?
Its Activity is “inactive”.

What about the Activity [12] of the same compound?
The Activity was “Active”.

And the Activity [13]?
The Activity was “Active”.

What about the Activity [14] of the same compound?
The Activity was “Active”.

And the Activity [15]?
Its Activity is “Active”.

What about the Activity [16] of the same compound?
The Activity was “Active”.
